# Test results taken from PubChem BioAssay AID1259407 (Chemical Carcinogenesis Research Information System (CCRIS), 2018).
# Active and inactive are the calls of the source. The rule behind the calls is not given here.
# Test system: CCRIS mutagenicity, Ames/micronucleus/aberration tests
# Assay: CCRIS mutagenicity studies
# [1] = Test System: AMES SALMONELLA TYPHIMURIUM, Strain/Indicator: TA98, Metabolic Activation: NONE, Method: PREINCUBATION
# [2] = Test System: AMES SALMONELLA TYPHIMURIUM, Strain/Indicator: TA100, Metabolic Activation: NONE, Method: PREINCUBATION
# [3] = Test System: AMES SALMONELLA TYPHIMURIUM, Strain/Indicator: TA98, Metabolic Activation: NONE, Method: STANDARD PLATE
# [4] = Test System: AMES SALMONELLA TYPHIMURIUM, Strain/Indicator: TA98, Metabolic Activation: RAT, LIVER, S-9, AROCLOR 1254, Method: STANDARD PLATE
# [5] = Test System: AMES SALMONELLA TYPHIMURIUM, Strain/Indicator: TA100, Metabolic Activation: NONE, Method: STANDARD PLATE
# [6] = Test System: AMES SALMONELLA TYPHIMURIUM, Strain/Indicator: TA100, Metabolic Activation: RAT, LIVER, S-9, AROCLOR 1254, Method: STANDARD PLATE
# [7] = Test System: AMES SALMONELLA TYPHIMURIUM, Strain/Indicator: TA98, Metabolic Activation: RAT, LIVER, S-9, PCB, Method: PREINCUBATION
smiles,measurement,setting,value
CCCCOP(=O)(OCCCC)Oc1ccccc1,mutagenic call,"Test System: AMES SALMONELLA TYPHIMURIUM, Strain/Indicator: TA97, Metabolic Activation: HAMSTER, LIVER, S-9, AROCLOR 1254 (10%), Method: PREINCUBATION",inactive; negative
same,mutagenic call,"Test System: AMES SALMONELLA TYPHIMURIUM, Strain/Indicator: TA97, Metabolic Activation: HAMSTER, LIVER, S-9, AROCLOR 1254 (30%), Method: PREINCUBATION",inactive; negative
same,mutagenic call,"Test System: AMES SALMONELLA TYPHIMURIUM, Strain/Indicator: TA97, Metabolic Activation: NONE, Method: PREINCUBATION",inactive; negative
same,mutagenic call,"Test System: AMES SALMONELLA TYPHIMURIUM, Strain/Indicator: TA97, Metabolic Activation: RAT, LIVER, S-9, AROCLOR 1254 (10%), Method: PREINCUBATION",inactive; negative
same,mutagenic call,"Test System: AMES SALMONELLA TYPHIMURIUM, Strain/Indicator: TA97, Metabolic Activation: RAT, LIVER, S-9, AROCLOR 1254 (30%), Method: PREINCUBATION",inactive; negative
same,mutagenic call,"Test System: AMES SALMONELLA TYPHIMURIUM, Strain/Indicator: TA98, Metabolic Activation: HAMSTER, LIVER, S-9, AROCLOR 1254 (10%), Method: PREINCUBATION",inactive; negative
same,mutagenic call,"Test System: AMES SALMONELLA TYPHIMURIUM, Strain/Indicator: TA98, Metabolic Activation: HAMSTER, LIVER, S-9, AROCLOR 1254 (30%), Method: PREINCUBATION",inactive; negative
same,mutagenic call,[1],inactive; negative
same,mutagenic call,"Test System: AMES SALMONELLA TYPHIMURIUM, Strain/Indicator: TA98, Metabolic Activation: RAT, LIVER, S-9, AROCLOR 1254 (10%), Method: PREINCUBATION",inactive; negative
same,mutagenic call,"Test System: AMES SALMONELLA TYPHIMURIUM, Strain/Indicator: TA98, Metabolic Activation: RAT, LIVER, S-9, AROCLOR 1254 (30%), Method: PREINCUBATION",inactive; negative
same,mutagenic call,"Test System: AMES SALMONELLA TYPHIMURIUM, Strain/Indicator: TA100, Metabolic Activation: HAMSTER, LIVER, S-9, AROCLOR 1254 (10%), Method: PREINCUBATION",inactive; negative
same,mutagenic call,"Test System: AMES SALMONELLA TYPHIMURIUM, Strain/Indicator: TA100, Metabolic Activation: HAMSTER, LIVER, S-9, AROCLOR 1254 (30%), Method: PREINCUBATION",inactive; negative
same,mutagenic call,[2],inactive; negative
same,mutagenic call,"Test System: AMES SALMONELLA TYPHIMURIUM, Strain/Indicator: TA100, Metabolic Activation: RAT, LIVER, S-9, AROCLOR 1254 (10%), Method: PREINCUBATION",inactive; negative
same,mutagenic call,"Test System: AMES SALMONELLA TYPHIMURIUM, Strain/Indicator: TA100, Metabolic Activation: RAT, LIVER, S-9, AROCLOR 1254 (30%), Method: PREINCUBATION",inactive; negative
same,mutagenic call,"Test System: AMES SALMONELLA TYPHIMURIUM, Strain/Indicator: TA1535, Metabolic Activation: HAMSTER, LIVER, S-9, AROCLOR 1254 (10%), Method: PREINCUBATION",inactive; negative
same,mutagenic call,"Test System: AMES SALMONELLA TYPHIMURIUM, Strain/Indicator: TA1535, Metabolic Activation: HAMSTER, LIVER, S-9, AROCLOR 1254 (30%), Method: PREINCUBATION",inactive; negative
same,mutagenic call,"Test System: AMES SALMONELLA TYPHIMURIUM, Strain/Indicator: TA1535, Metabolic Activation: NONE, Method: PREINCUBATION",inactive; negative
same,mutagenic call,"Test System: AMES SALMONELLA TYPHIMURIUM, Strain/Indicator: TA1535, Metabolic Activation: RAT, LIVER, S-9, AROCLOR 1254 (10%), Method: PREINCUBATION",inactive; negative
same,mutagenic call,"Test System: AMES SALMONELLA TYPHIMURIUM, Strain/Indicator: TA1535, Metabolic Activation: RAT, LIVER, S-9, AROCLOR 1254 (30%), Method: PREINCUBATION",inactive; negative
Clc1ccccn1,mutagenic call,"Test System: AMES SALMONELLA TYPHIMURIUM, Strain/Indicator: TA97, Metabolic Activation: NONE, Method: STANDARD PLATE",inactive; negative
same,mutagenic call,"Test System: AMES SALMONELLA TYPHIMURIUM, Strain/Indicator: TA97, Metabolic Activation: RAT, LIVER, S-9, AROCLOR 1254, Method: STANDARD PLATE",active; positive
same,mutagenic call,[3],inactive; negative
same,mutagenic call,[4],active; positive
same,mutagenic call,[5],inactive; negative
same,mutagenic call,[6],active; positive
same,mutagenic call,"Test System: AMES SALMONELLA TYPHIMURIUM, Strain/Indicator: TA102, Metabolic Activation: NONE, Method: STANDARD PLATE",inactive; negative
same,mutagenic call,"Test System: AMES SALMONELLA TYPHIMURIUM, Strain/Indicator: TA102, Metabolic Activation: RAT, LIVER, S-9, AROCLOR 1254, Method: STANDARD PLATE",active; positive
same,mutagenic call,"Test System: MOUSE LYMPHOMA, Strain/Indicator: L5178Y (TK+/TK-), Metabolic Activation: NONE",active; positive
same,mutagenic call,"Test System: MOUSE LYMPHOMA, Strain/Indicator: L5178Y (TK+/TK-), Metabolic Activation: RAT, LIVER, S-9, AROCLOR 1254",active; positive
C[N+]1(CCNP(=S)(NCC[N+]2(C)Cc3c(ccc4c3OCO4)[C@@H]3[C@H]2c2cc4c(cc2C[C@@H]3O)OCO4)NCC[N+]2(C)Cc3c(ccc4c3OCO4)[C@@H]3[C@H]2c2cc4c(cc2C[C@@H]3O)OCO4)Cc2c(ccc3c2OCO3)[C@@H]2[C@H]1c1cc3c(cc1C[C@@H]2O)OCO3 (stereo partly specified),mutagenic call,[5],inactive; negative
same,mutagenic call,[6],inactive; negative
Nc1cccc2nc3c(N)cccc3nc12,mutagenic call,[1],active; positive
same,mutagenic call,[7],inactive; negative
CN(C)CCC=C1c2ccccc2CCc2ccccc21,mutagenic call,[3],inactive; negative
same,mutagenic call,[4],inactive; negative
same,mutagenic call,[5],inactive; negative
same,mutagenic call,[6],inactive; negative
same,mutagenic call,"Test System: AMES SALMONELLA TYPHIMURIUM, Strain/Indicator: TA1535, Metabolic Activation: NONE, Method: STANDARD PLATE",inactive; negative
same,mutagenic call,"Test System: AMES SALMONELLA TYPHIMURIUM, Strain/Indicator: TA1535, Metabolic Activation: RAT, LIVER, S-9, AROCLOR 1254, Method: STANDARD PLATE",inactive; negative
same,mutagenic call,"Test System: AMES SALMONELLA TYPHIMURIUM, Strain/Indicator: TA1537, Metabolic Activation: NONE, Method: STANDARD PLATE",inactive; negative
same,mutagenic call,"Test System: AMES SALMONELLA TYPHIMURIUM, Strain/Indicator: TA1537, Metabolic Activation: RAT, LIVER, S-9, AROCLOR 1254, Method: STANDARD PLATE",inactive; negative
Clc1nncc2cccnc12,mutagenic call,[1],inactive; negative
same,mutagenic call,[7],active; positive
same,mutagenic call,[2],inactive; negative
same,mutagenic call,"Test System: AMES SALMONELLA TYPHIMURIUM, Strain/Indicator: TA100, Metabolic Activation: RAT, LIVER, S-9, PCB, Method: PREINCUBATION",active; positive
